Data on 13 molecules can be found in ChEMBL document CHEMBL4261525, “Design, facile synthesis and anthelmintic activity of new O-substituted 6-methoxybenzothiazole-2-carbamates. Part II” (2017).

Type in all cases: functional
The subject of assay [1] is Paramphistomum. The assay can be described thus: Anthelmintic activity against Paramphistomum assessed as mortality at 40 ug/ml after 1 hr relative to control.
Assay [2] concerns Paramphistomum. The assay can be described thus: Anthelmintic activity against Paramphistomum assessed as mortality at 80 ug/ml after 6 hrs relative to control.
Assay [3] relates to Paramphistomum. The assay can be described thus: Anthelmintic activity against Paramphistomum assessed as mortality at 80 ug/ml after 4 hrs relative to control.
Assay [4] concerns Paramphistomum. The assay can be described thus: Anthelmintic activity against Paramphistomum assessed as mortality at 40 ug/ml after 4 hrs relative to control.
For assay [5], the system named is Paramphistomum. The assay can be described thus: Anthelmintic activity against Paramphistomum assessed as mortality at 40 ug/ml after 6 hrs relative to control.
The subject of assay [6] is Paramphistomum. The assay can be described thus: Anthelmintic activity against Paramphistomum assessed as mortality at 80 ug/ml after 2 hrs relative to control.
Assay [7] relates to Paramphistomum. The assay can be described thus: Anthelmintic activity against Paramphistomum assessed as mortality at 40 ug/ml after 2 hrs relative to control.
The test system of assay [8] is Paramphistomum. The assay can be described thus: Anthelmintic activity against Paramphistomum assessed as mortality at 80 ug/ml after 1 hr relative to control.

Consider `CCSc1nnc(COc2ccc3nc(NC(=O)OC)sc3c2)o1`, for which the mortality at 40 µg/mL amounted to 10% in the assay on Paramphistomum [1], 50% with Paramphistomum [4], 80% with Paramphistomum [5] and 40% in the assay on Paramphistomum [7]. The mortality at 80 µg/mL in the assay on Paramphistomum [2] stood at 80%; in the assay on Paramphistomum [3], 60%; in the assay with Paramphistomum [6] it was 60%; with Paramphistomum [8], 20%.
For `COC(=O)Nc1nc2ccc(OCc3nnc(SCC(=O)c4ccc(Br)cc4)o3)cc2s1`, the mortality at 40 µg/mL was 20% with Paramphistomum [1], 60% with Paramphistomum [4], 60% with Paramphistomum [5] and 40% in the assay on Paramphistomum [7]. Further, the mortality at 80 µg/mL in the assay on Paramphistomum [6] worked out at 100%; with Paramphistomum [8], 60%.
Regarding `COC(=O)Nc1nc2ccc(OCc3nnc(SCc4ccccc4)o3)cc2s1`, the mortality at 40 µg/mL with Paramphistomum [1] worked out at 30%; with Paramphistomum [4], 50%; in the assay with Paramphistomum [5], 60%; in the assay on Paramphistomum [7], 30%. Besides, the mortality at 80 µg/mL with Paramphistomum [2] worked out at 100%; in the assay with Paramphistomum [3] it was 90%; in the assay with Paramphistomum [6] it was 60%; with Paramphistomum [8] it was 30%.
Take `COC(=O)Nc1nc2ccc(OCc3nnc(S)n3-c3ccccc3)cc2s1`: the mortality at 40 µg/mL with Paramphistomum [1], in the assay with Paramphistomum [4], in the assay with Paramphistomum [5] and in the assay with Paramphistomum [7] was 0% throughout. For the same molecule, the mortality at 80 µg/mL with Paramphistomum [2], with Paramphistomum [3], in the assay with Paramphistomum [6] and in the assay on Paramphistomum [8] was 0% in each case.
For `CCOC(=O)CSc1nnc(COc2ccc3nc(NC(=O)OC)sc3c2)o1`, the mortality at 40 µg/mL was determined as 10% in the assay with Paramphistomum [1], 30% in the assay on Paramphistomum [4], 30% in the assay on Paramphistomum [5] and 20% with Paramphistomum [7]. The mortality at 80 µg/mL was determined as 60% in the assay with Paramphistomum [2], 50% in the assay on Paramphistomum [3], 30% with Paramphistomum [6] and 20% in the assay with Paramphistomum [8].
With `COC(=O)Nc1nc2ccc(OCc3nnc(SCC(=O)c4ccc(Cl)cc4)o3)cc2s1`, the mortality at 40 µg/mL in the assay on Paramphistomum [1], with Paramphistomum [4], in the assay on Paramphistomum [5] and with Paramphistomum [7] was 40% each time. Besides, the values for the mortality at 80 µg/mL with Paramphistomum [3], with Paramphistomum [6] and with Paramphistomum [8] were 100%, 70% and 50%, respectively.
On to `COC(=O)Nc1nc2ccc(OCc3nnc(SC)o3)cc2s1`, for which the mortality at 40 µg/mL with Paramphistomum [1] was determined as 10%; with Paramphistomum [4], 20%; in the assay with Paramphistomum [5], 20%; in the assay with Paramphistomum [7] it was 10%. For the same molecule, the mortality at 80 µg/mL was determined as 40% in the assay with Paramphistomum [2], 30% in the assay on Paramphistomum [3], 20% in the assay with Paramphistomum [6] and 10% with Paramphistomum [8].
Turning to `COC(=O)Nc1nc2ccc(OCc3nnc(SC(=O)CCl)o3)cc2s1`, the mortality at 40 µg/mL amounted to 10% with Paramphistomum [1], 20% in the assay on Paramphistomum [4], 20% in the assay with Paramphistomum [5] and 10% in the assay with Paramphistomum [7]. Besides, the mortality at 80 µg/mL was 50% in the assay on Paramphistomum [2], 30% with Paramphistomum [3], 30% in the assay on Paramphistomum [6] and 10% with Paramphistomum [8].
As for `COC(=O)Nc1nc2ccc(OCc3nnc(S)n3-c3ccc(C)cc3)cc2s1`, the mortality at 40 µg/mL in the assay with Paramphistomum [1], in the assay with Paramphistomum [4], in the assay on Paramphistomum [5] and in the assay on Paramphistomum [7] was 0% throughout. The mortality at 80 µg/mL with Paramphistomum [2], in the assay on Paramphistomum [3], in the assay with Paramphistomum [6] and in the assay on Paramphistomum [8] was 0% in each case.
As to `COC(=O)Nc1nc2ccc(OCc3nnc(S)n3-c3ccc(Cl)cc3)cc2s1`, the mortality at 40 µg/mL in the assay on Paramphistomum [1] was 10%; in the assay on Paramphistomum [4] it was 30%; in the assay with Paramphistomum [5] it was 50%; in the assay on Paramphistomum [7], 20%. Also, the mortality at 80 µg/mL with Paramphistomum [2] came out at 80%; with Paramphistomum [3], 50%; with Paramphistomum [6], 20%; in the assay on Paramphistomum [8] it was 20%.
Take `C=CCSc1nnc(COc2ccc3nc(NC(=O)OC)sc3c2)o1`: the mortality at 40 µg/mL in the assay with Paramphistomum [1] is 20%; in the assay with Paramphistomum [4], 50%; in the assay with Paramphistomum [5], 70%; in the assay on Paramphistomum [7], 30%. Besides, the mortality at 80 µg/mL in the assay on Paramphistomum [3] is 100%; in the assay with Paramphistomum [6] it was 40%; in the assay with Paramphistomum [8] it was 20%.
For the molecule `COC(=O)Nc1nc2ccc(OCc3nnc(SCC(=O)c4ccccc4)o3)cc2s1`, the mortality at 40 µg/mL in the assay with Paramphistomum [1] was 10%; with Paramphistomum [4] it was 20%; with Paramphistomum [5], 30%; with Paramphistomum [7], 20%. For the same molecule, the mortality at 80 µg/mL in the assay with Paramphistomum [2] is 70%; with Paramphistomum [3], 50%; with Paramphistomum [6], 40%; in the assay with Paramphistomum [8], 30%.
Take `O=C(Nc1cc(Cl)cc(Cl)c1O)c1c(O)c(Cl)cc(Cl)c1Cl` [OXYCLOZANIDE]: the results for the mortality at 40 µg/mL in the assay with Paramphistomum [1], in the assay with Paramphistomum [4] and with Paramphistomum [7] were 30%, 100% and 70%, respectively. For the same molecule, the mortality at 80 µg/mL with Paramphistomum [6] was determined as 100%; in the assay on Paramphistomum [8] it was 50%.

For orientation: mortality means the share of the test organisms that died.
